Measured values reported in patent publication US20160067221A1, “USE OF ERGOTHIONEINE FOR INDUCING ACTIVITY OF NRF2 IN CELL” (China Medical University, priority 2014, published 2016).

System: UVA-irradiated HaCaT cells
Experiment: Total glutathione (GSH) content, DTNB method
Format: cell-based, human
Details: 125-500 nM 24 hours prior to 15 J/cm^2 UVA, 4 hours; dose-dependent
Description: A glutathione (GSH), the antioxidant in animal cells, can protect DNA against external oxidative stresses. Given that the ergothioneine treatment to the HaCaT cells can reduce the DNA damage of the HaCaT cells; this example next investigates the UVA-induced oxidative damage by determining a total GSH content of the HaCaT cells treated with the ergothioneine or the UVA irradiation. A glutathione disulfide (GSSG) is an oxidized form of the GSH, and the GSSG can be reduced to the GSH by a glutathione reductase. Antioxidant enzymes, such as glutathione peroxidases and peroxiredoxins, generate glutathione disulfide during the reduction of peroxides such as hydrogen peroxide (H2O2) and organic hydroperoxides (ROOH). The GSH generates a yellow-colored 5-thio-2-nitrobenzoic acid (TNB) and a […] GSTNB (between GSH and TNB) during the reaction of 5,5′-dithiobis-(2-nitrobenzoic acid) (DTNB), wherein the content of (GSSG+GSH) is the rate determining factor of color production in aforementioned reactions. The rate of the yellow-colored TNB production is directly proportional to the concentration of (GSSG+GSH) in a sample. Thus, measurement of the absorbance of the TNB provides an accurate estimation of the amount of total glutathione (GSSG+GSH) in the sample. […] The net absorbance at 405 nm yields an accurate amount of the total glutathione in the sample.

## C[N+](C)(C)[C@@H](Cc1c[nH]c(=S)[nH]1)C(=O)[O-] [ergothioneine, 2-mercapto histidine trimethylbetain]
  total glutathione level: increased
